Experimental data from US20180000771A1, “AGENT FOR PREVENTING AND/OR TREATING AMYOTROPHIC LATERAL SCLEROSIS” (KYOTO UNIVERSITY, priority 2015, published 2018).
Structures can show the parent of a compound that is named as a salt.

Tests used:
[1] = tested on: motoneuron cells derived from iPS cells having SOD1-L144FVX mutation; assay: survival of motoneuron cells induced from ALS patient iPS cells (SOD1 mutation); settings: for dose correlation in the protection effect on motoneuron cell having SOD1 mutation: FIG. 2, FIG. 6; for MN index (motoneuron cell survival number ratio as compared to negative control): SOD1-L144FVX motoneuron cells contacted with medicament for 7 days, negative control DMSO; for survival of motor neuron: familial ALS (mSOD1 ALS) motoneuron cells, 0, 0.01, 0.1, 1, 10 μM, n=6, p<0.05, FIG. 7; for cell survival rate improvement, SOD1 mutation / cell survival rate improving effect, significance, SOD1 mutation: added on day 7, survived motoneuron cells counted on day 14
[2] = tested on: motoneuron cells derived from iPS cells of sporadic ALS patients; assay: survival of motoneuron cells induced from sporadic ALS patient iPS cells; type: cell-based, human; settings: added on day 7, survived motoneuron cells counted on day 14
[3] = tested on: motoneuron cells derived from iPS cells of ALS patients having C9orf72 mutation; assay: survival of motoneuron cells induced from ALS patient iPS cells (C9orf72 mutation); type: cell-based, human; settings: for cell survival rate improvement, C9orf72 mutation / cell survival rate improving effect, significance, C9orf72 mutation: added on day 7, survived motoneuron cells counted on day 14

In the case of `CC(O)CC(=O)O` (racemic) [3-hydroxybutyric acid], the “dose correlation in the protection effect on motoneuron cell having SOD1 mutation” value (“dose correlation” for short) [1] is reported as “increase in the effect in a dose-dependent manner”.

In the case of `CCN(CC)Cc1cc(Nc2ccnc3cc(Cl)ccc23)ccc1O` [AMODIAQUINE DIHYDROCHLORIDE, AMODIAQUINE], the “MN index (motoneuron cell survival number ratio as compared to negative control)” value [1] is reported as 8.98.

With `CN1CCc2cccc3c2[C@H]1Cc1ccc(O)c(O)c1-3` [APOMORPHINE HYDROCHLORIDE, APOMORPHINE] the “MN index (motoneuron cell survival number ratio as compared to negative control)” value [1] was 7.26.

In the case of `O=C(Nc1c[nH]nc1-c1nc2cc(CN3CCOCC3)ccc2[nH]1)NC1CC1` [AT9283], the “survival of motor neuron” value [1] is reported as “increased survival of motor neuron”.

In the case of `CNC(=O)c1ccccc1Sc1ccc2c(/C=C/c3ccccn3)n[nH]c2c1` [Axitinib], the “cell survival rate improvement, sporadic” value [2] is reported as “x (cell survival rate improvement less than 20%)”, the “cell survival rate improving effect, significance, sporadic” value [2] is reported as “x (no significant difference (p ≧ 0.05))” and the “efficacy for ALS having C9orf72 mutation (conclusion from Tables 5 and 6)” value [3] is reported as “higher efficacy”. For the same compound, the “cell survival rate improvement, C9orf72 mutation” value [3] was “○ (cell survival rate improvement not less than 20%)”, the “cell survival rate improving effect, significance, C9orf72 mutation” value [3] was “○ (significant difference (p < 0.05))” and the “dose correlation” value [1] was “increase in the effect in a dose-dependent manner”. The “MN index (motoneuron cell survival number ratio as compared to negative control)” value [1] was 7.35, the “cell survival rate improvement, SOD1 mutation” value [1] was “x (cell survival rate improvement less than 20%)” and the “cell survival rate improving effect, significance, SOD1 mutation” value [1] was “x (no significant difference (p ≧ 0.05))”.

`CCOc1ccn(-c2ccc(F)cc2)c(=O)c1C(=O)Nc1ccc(Oc2ccnc(N)c2Cl)c(F)c1` [BMS 777607] was tested, and the “MN index (motoneuron cell survival number ratio as compared to negative control)” value [1] was 8.55.

In the case of `Cn1cnc2cc3c(Nc4cccc(Br)c4)ncnc3cc21` [BPIQ-I], the “MN index (motoneuron cell survival number ratio as compared to negative control)” value [1] is reported as 8.14.

With `CCCCOC(=O)c1ccc(N)cc1` [BUTAMBEN] the “MN index (motoneuron cell survival number ratio as compared to negative control)” value [1] was 7.39.

For `Cc1ccc(NC(=O)c2ccc(CN3CC[C@H](N(C)C)C3)c(C(F)(F)F)c2)cc1Nc1nccc(-c2cncnc2)n1` [Bafetinib], the “survival of motor neuron” value [1] was “increased survival of motor neuron”.

`CCNC(=O)CCC/C=C\C[C@@H]1[C@@H](/C=C/[C@@H](O)CCc2ccccc2)[C@H](O)C[C@@H]1O` [Bimatoprost] was tested, and the “dose correlation” value [1] was “increase in the effect in a dose-dependent manner”.

For `COc1cc(Nc2c(C#N)cnc3cc(OCCCN4CCN(C)CC4)c(OC)cc23)c(Cl)cc1Cl` [Bosutinib], the “cell survival rate improvement, sporadic” value [2] was “○ (cell survival rate improvement not less than 20%)”, the “cell survival rate improving effect, significance, sporadic” value [2] was “○ (significant difference (p < 0.05))” and the “cell survival rate improvement, C9orf72 mutation” value [3] was “○ (cell survival rate improvement not less than 20%)”. For the same compound, the “cell survival rate improving effect, significance, C9orf72 mutation” value [3] was “○ (significant difference (p < 0.05))”, the “cell survival rate improvement, SOD1 mutation” value [1] was “○ (cell survival rate improvement not less than 20%)” and the “cell survival rate improving effect, significance, SOD1 mutation” value [1] was “○ (significant difference (p < 0.05))”.

`Cc1nc(N)sc1-c1ccnc(Nc2ccc(N3CCOCC3)cc2)n1` [CYC116] was tested, and the “MN index (motoneuron cell survival number ratio as compared to negative control)” value [1] was 8.14.

With `CCN(CC)C(=O)c1ccc(Nc2nc(OCC3CCCCC3)c3nc[nH]c3n2)cc1` [Cdk2 Inhibitor IV, NU6140] the “MN index (motoneuron cell survival number ratio as compared to negative control)” value [1] was 7.08.

In the case of `C[C@@H](Oc1cc(-c2cnn(C3CCNCC3)c2)cnc1N)c1c(Cl)ccc(F)c1Cl` [Crizotinib (PF- 2341066), Crizotinib], the “MN index (motoneuron cell survival number ratio as compared to negative control)” value [1] is reported as 7.60.

With `C[C@@H](Oc1cc(-c2cnn(C3CCNCC3)c2)cnc1N)c1c(Cl)ccc(F)c1Cl` [Crizotinib] the “cell survival rate improvement, sporadic” value [2] was “x (cell survival rate improvement less than 20%)”, the “cell survival rate improving effect, significance, sporadic” value [2] was “x (no significant difference (p ≧ 0.05))” and the “cell survival rate improvement, C9orf72 mutation” value [3] was “x (cell survival rate improvement less than 20%)”. The “cell survival rate improving effect, significance, C9orf72 mutation” value [3] was “○ (significant difference (p < 0.05))”, the “efficacy for ALS having SOD1 mutation (conclusion from Tables 5 and 6)” value [1] was “higher efficacy” and the “dose correlation” value [1] was “increase in the effect in a dose-dependent manner”. The “cell survival rate improvement, SOD1 mutation” value [1] was “○ (cell survival rate improvement not less than 20%)” and the “cell survival rate improving effect, significance, SOD1 mutation” value [1] was “○ (significant difference (p < 0.05))”.

In the case of `CC1=NN(c2ccccc2)C(=O)C1` [Edaravone], the “dose correlation” value [1] is reported as “increase in the effect in a dose-dependent manner”.

With `Cn1cc(C2=C(c3cn(C4CCN(Cc5ccccn5)CC4)c4ccccc34)C(=O)NC2=O)c2ccccc21` [Enzastaurin] the “MN index (motoneuron cell survival number ratio as compared to negative control)” value [1] was 9.84.

With `O=C(O)CCC(=O)c1ccc(-c2ccccc2)cc1` [FENBUFEN] the “MN index (motoneuron cell survival number ratio as compared to negative control)” value [1] was 7.22.

For `CC1(C)O[C@@H]2C[C@H]3[C@@H]4C[C@H](F)C5=CC(=O)C=C[C@]5(C)[C@H]4[C@@H](O)C[C@]3(C)[C@]2(C(=O)CO)O1` [FLUNISOLIDE], the “MN index (motoneuron cell survival number ratio as compared to negative control)” value [1] was 7.86.

For `COc1ccc2c(c1OC)C(=O)OC2C1c2cc3c(cc2CCN1C)OCO3` [HYDRASTINE (1R,9S)], the “MN index (motoneuron cell survival number ratio as compared to negative control)” value [1] was 7.53.

`Oc1ccc(O)cc1` [HYDROQUINONE] was tested, and the “MN index (motoneuron cell survival number ratio as compared to negative control)” value [1] was 7.96.

For `Cc1ccc(NC(=O)c2ccc(CN3CCN(C)CC3)cc2)cc1Nc1nccc(-c2cccnc2)n1` [Imatinib], the “survival of motor neuron” value [1] was “increased survival of motor neuron”.

With `O=C1Nc2ccccc2/C1=C1/Nc2ccccc2/C1=N\O` [Indirubin-3′-monoxime] the “MN index (motoneuron cell survival number ratio as compared to negative control)” value [1] was 7.54.

In the case of `O=C(c1ccc(/C=C/c2n[nH]c3ccccc23)cc1)N1CCNCC1` [KW 2449], the “MN index (motoneuron cell survival number ratio as compared to negative control)” value [1] is reported as 7.72.

In the case of `Cn1cnc(-c2cc3nccc(Oc4ccc(NC(=S)NC(=O)Cc5ccccc5)cc4F)c3s2)c1` [MGCD-265], the “MN index (motoneuron cell survival number ratio as compared to negative control)” value [1] is reported as 7.62.

For `Cc1cn(-c2cc(NC(=O)c3ccc(C)c(Nc4nccc(-c5cccnc5)n4)c3)cc(C(F)(F)F)c2)cn1` [Nilotinib], the “survival of motor neuron” value [1] was “increased survival of motor neuron”.

For `O=C(/C=C/C=C/c1ccc2c(c1)OCO2)N1CCCCC1` [PIPERINE], the “MN index (motoneuron cell survival number ratio as compared to negative control)” value [1] was 7.39.

In the case of `Cc1ccc(Nc2nccc(N(C)c3ccc4c(C)n(C)nc4c3)n2)cc1S(N)(=O)=O` [Pazopanib Hydrochloride], the “MN index (motoneuron cell survival number ratio as compared to negative control)” value [1] is reported as 9.53.

In the case of `Cc1ccc(Nc2nccc(N(C)c3ccc4c(C)n(C)nc4c3)n2)cc1S(N)(=O)=O` [Pazopanib], the “cell survival rate improvement, sporadic” value [2] is reported as “x (cell survival rate improvement less than 20%)”, the “cell survival rate improving effect, significance, sporadic” value [2] is reported as “x (no significant difference (p ≧ 0.05))” and the “cell survival rate improvement, C9orf72 mutation” value [3] is reported as “○ (cell survival rate improvement not less than 20%)”. The “cell survival rate improving effect, significance, C9orf72 mutation” value [3] was “○ (significant difference (p < 0.05))”, the “cell survival rate improvement, SOD1 mutation” value [1] was “x (cell survival rate improvement less than 20%)” and the “cell survival rate improving effect, significance, SOD1 mutation” value [1] was “○ (significant difference (p < 0.05))”.

In the case of `Cc1cc2nc3c(=O)[nH]c(=O)nc-3n(C[C@H](O)[C@H](O)[C@H](O)CO)c2cc1C` [RIBOFLAVIN], the “MN index (motoneuron cell survival number ratio as compared to negative control)” value [1] is reported as 9.55.

In the case of `O=C(c1ccc(OCCN2CCCCC2)cc1)c1c(-c2ccc(O)cc2)sc2cc(O)ccc12` [Raloxifene], the “dose correlation” value [1] is reported as “increase in the effect in a dose-dependent manner”.

In the case of `CNC(=O)c1cc(Oc2ccc(NC(=O)Nc3cc(C(C)(C)C)nn3-c3ccc4ncccc4c3)c(F)c2)ccn1` [Rebastinib], the “survival of motor neuron” value [1] is reported as “increased survival of motor neuron”.

In the case of `O=C1c2ccccc2-c2n[nH]c3cccc1c23` [SP600125], the “MN index (motoneuron cell survival number ratio as compared to negative control)” value [1] is reported as 8.38.

`COc1ccc2c(c1)/C(=C/c1c[nH]cn1)C(=O)N2` [SU9516] was tested, and the “MN index (motoneuron cell survival number ratio as compared to negative control)” value [1] was 8.39.

For `CCN(CC)CCNC(=O)c1c(C)[nH]c(/C=C2\C(=O)Nc3ccc(F)cc32)c1C` [Sunitinib], the “cell survival rate improvement, sporadic” value [2] was “○ (cell survival rate improvement not less than 20%)”, the “cell survival rate improving effect, significance, sporadic” value [2] was “○ (significant difference (p < 0.05))” and the “cell survival rate improvement, C9orf72 mutation” value [3] was “○ (cell survival rate improvement not less than 20%)”. The “cell survival rate improving effect, significance, C9orf72 mutation” value [3] was “○ (significant difference (p < 0.05))”, the “cell survival rate improvement, SOD1 mutation” value [1] was “○ (cell survival rate improvement not less than 20%)” and the “cell survival rate improving effect, significance, SOD1 mutation” value [1] was “○ (significant difference (p < 0.05))”.

In the case of `NCCNc1ncc(C(N)=O)c(Nc2cccc(C(F)(F)F)c2)n1` [Syk Inhibitor II], the “MN index (motoneuron cell survival number ratio as compared to negative control)” value [1] is reported as 7.59.

For `Cc1cc(Nc2cc(N3CCN(C)CC3)nc(Sc3ccc(NC(=O)C4CC4)cc3)n2)n[nH]1` [VX-680, tozasertib], the “MN index (motoneuron cell survival number ratio as compared to negative control)” value [1] was 9.58.

In the case of `O=C1NC(=O)c2c1c(-c1ccccc1Cl)cc1[nH]c3ccc(O)cc3c21` [Weel Inhibitor], the “MN index (motoneuron cell survival number ratio as compared to negative control)” value [1] is reported as 7.18.

`Cc1c(C)c2c(c(C)c1O)CC[C@@](C)(CCC[C@H](C)CCC[C@H](C)CCCC(C)C)O2` [alpha- TOCHOPHEROL, alpha-TOCHOPHEROL] was tested, and the “MN index (motoneuron cell survival number ratio as compared to negative control)” value [1] was 9.46.

For Bosutinib [Bosutinib (SKI-606)], the “MN index (motoneuron cell survival number ratio as compared to negative control)” value [1] was 7.20.

For Sunitinib Malate, the “MN index (motoneuron cell survival number ratio as compared to negative control)” value [1] was 8.13.
